System: LNCaP cells
Experiment: Inhibition of the proliferation of LNCaP cells (crystal violet assay)
Assay type: cell-based, human
Conditions: for inhibition at 1 µM / IC50: Homo sapiens, LNCaP; for inhibition at 1 µM: 1 μM test substance, compared to cell growth in the presence of 0.1 nmol of R1881, read-out: % Inhibition at 1 μM; for IC50: in the presence of 0.1 nmol of R1881, 7 to 8 days, read-out: IC50 inhibition of the proliferation of LNCaP cells
Experimental: For the proliferation assay, 6000 LNCaP cells/well (Horoszewicz et al. Cancer Res. 1983, 43, 1809–1817) in a microtiter plate (96-well) in 50 μl of RPMI1640 medium are grown with 5% CCS and cultivated as in Model 1. After 24 hours, the cells receive 50 μl of 2×-concentrated test substance, diluted in culture medium. The solvent concentration is 0.5% DMSO. After 4 days, the cells receive another 100 μl of 1×-concentrated test substance, diluted in culture medium. After 7 to 8 days, the proliferation rate of the cells is determined by means of crystal violet assay (Gillies et al. Anal. Biochem. 1986, 159, 109–113). To determine the antagonism, the substance treatment is performed in the presence of […] of R1881 (1:1000 dilution of ethanolic solution). Control cells receive only 0.5% DMSO. For the agonism, the cells are treated only with test substance (without R1881).

Structure (SMILES)	inhibition at 1 µM	IC50	antiproliferative action (in words) (LNCaP cells)
CC1(C)C(=O)N(c2ccc(C#N)c(C(F)(F)F)c2)C(=S)N1CCCCCCCN1CC[C@H](O)C1 [Example 31, 4-[3-[7-[(S)-3-Hydroxypyrrolidin-1-yl]heptyl]-4,4-dimethyl-5-oxo-2-thioxoimidazolidin-1-yl]-2-(trifluoromethyl)benzonitrile]	104%	20 nM	–
CC1(C)C(=O)N(c2ccc(C#N)c(C(F)(F)F)c2)C(=S)N1CCCCCCCCN1CC[C@@H](C(N)=O)C1 [Example 54, (R)-1-[8-[3-[4-Cyano-3-(trifluoromethyl)phenyl]-5,5-dimethyl-4-oxo-2-thioxoimidazolidin-1-yl]octyl]pyrrolidine-4-carboxamide]	93%	64 nM	–
CC1CCCN1CCCCCCCCN1C(=S)N(c2ccc(C#N)c(C(F)(F)F)c2)C(=O)C1(C)C (stereo not drawn) [Example 36, 4-[4,4-Dimethyl-3-[8-(2-methylpyrrolidin-1-yl)octyl]-5-oxo-2-thioxoimidazolidin-1-yl]-2-(trifluoromethyl)benzonitrile]	96%	15 nM	–
CC1(C)C(=O)N(c2ccc(C#N)c(C(F)(F)F)c2)C(=S)N1CCCCCCCN1CCC[C@@H]1CO [Example 8, 4-[3-[7-[(2R)-2-(Hydroxymethyl)pyrrolidin-1-yl]heptyl]-4,4-dimethyl-5-oxo-2-thioxoimidazolidin-1-yl]-2-(trifluoromethyl)benzonitrile]	101%	11 nM	–
CC1(C)C(=O)N(c2ccc(C#N)c(C(F)(F)F)c2)C(=S)N1CCCCCN1CCCC1 [Comparison 2, 4-[4,4-Dimethyl-5-oxo-3-[5-(pyrrolidin-1-yl)pentyl]-2-thioxoimidazolidin-1-yl]-2-(trifluoromethyl)benzonitrile, reference compound]	38%	2100 nM	considerably reduced antiproliferative activity
CC1(C)C(=O)N(c2ccc(C#N)c(C(F)(F)F)c2)C(=S)N1CCCCCCCCN1CC[C@@H](O)C1 [Example 28, 4-[3-[8-[(R)-3-Hydroxypyrrolidin-1-yl]octyl]-4,4-dimethyl-5-oxo-2-thioxoimidazolidin-1-yl]-2-(trifluoromethyl)benzonitrile]	102%	11 nM	–
COC[C@H]1CCCN1CCCCCCCCN1C(=S)N(c2ccc(C#N)c(C(F)(F)F)c2)C(=O)C1(C)C [Example 18, 4-[3-[8-[(2R)-2-(Methoxymethyl)pyrrolidin-1-yl]octyl]-4,4-dimethyl-5-oxo-2-thioxoimidazolidin-1-yl]-2-(trifluoromethyl)benzonitrile]	103%	11 nM	–
CC1(C)C(=O)N(c2ccc(C#N)c(C(F)(F)F)c2)C(=S)N1CCCCCCCCCN1CCC[C@H]1CO [Example 13, 4-[3-[9-[(2S)-2-(Hydroxymethyl)pyrrolidin-1-yl]nonyl]-4,4-dimethyl-5-oxo-2-thioxoimidazolidin-1-yl]-2-(trifluoromethyl)benzonitrile]	88%	16 nM	–
COC[C@@H]1CCCN1CCCCCCCN1C(=S)N(c2ccc(C#N)c(C(F)(F)F)c2)C(=O)C1(C)C [Example 17, 4-[3-[7-[(2S)-2-(Methoxymethyl)pyrrolidin-1-yl]heptyl]-4,4-dimethyl-5-oxo-2-thioxoimidazolidin-1-yl]-2-(trifluoromethyl)benzonitrile]	99%	32 nM	–
CC1(C)C(=O)N(c2ccc(C#N)c(C(F)(F)F)c2)C(=S)N1CCCCCCCCCN1CCC[C@@H]1CO [Example 12, 4-[3-[9-[(2R)-2-(Hydroxymethyl)pyrrolidin-1-yl]nonyl]-4,4-dimethyl-5-oxo-2-thioxoimidazolidin-1-yl]-2-(trifluoromethyl)benzonitrile]	93%	24 nM	–
CC1CCCN1CCCCCCCN1C(=S)N(c2ccc(C#N)c(C(F)(F)F)c2)C(=O)C1(C)C (stereo not drawn) [Example 35, 4-[4,4-Dimethyl-3-[7-(2-methylpyrrolidin-1-yl)heptyl]-5-oxo-2-thioxoimidazolidin-1-yl]-2-(trifluoromethyl)benzonitrile]	92%	30 nM	–
CC1(C)C(=O)N(c2ccc(C#N)c(C(F)(F)F)c2)C(=S)N1CCCCCCCN1C2CCC1CC(O)C2 (stereo not drawn) [Example 23, 4-[3-[7-(3-Hydroxy-8-azabicyclo[3.2.1]oct-8-yl)heptyl]-4,4-dimethyl-5-oxo-2-thioxoimidazolidin-1-yl]-2-(trifluoromethyl)benzonitrile]	79%	48 nM	–
CC1(C)C(=O)N(c2ccc(C#N)c(C(F)(F)F)c2)C(=S)N1CCCCCCCCN1CC[C@H](O)C1 [Example 32, 4-[3-[8-[(S)-3-Hydroxypyrrolidin-1-yl]octyl]-4,4-dimethyl-5-oxo-2-thioxoimidazolidin-1-yl]-2-(trifluoromethyl)benzonitrile]	101%	12 nM	–
CC1(C)C(=O)N(c2ccc(C#N)c(C(F)(F)F)c2)C(=S)N1CCCCCCCCCN1CC[C@@H](O)C1 [Example 29, 4-[3-[9-[(R)-3-Hydroxypyrrolidin-1-yl]nonyl]-4,4-dimethyl-5-oxo-2-thioxoimidazolidin-1-yl]-2-(trifluoromethyl)benzonitrile]	99%	35 nM	–
COC[C@@H]1CCCN1CCCCCCCCCN1C(=S)N(c2ccc(C#N)c(C(F)(F)F)c2)C(=O)C1(C)C [Example 21, 4-[3-[9-[(2S)-2-(Methoxymethyl)pyrrolidin-1-yl]nonyl]-4,4-dimethyl-5-oxo-2-thioxoimidazolidin-1-yl]-2-(trifluoromethyl)benzonitrile]	94%	47 nM	–
CC1(C)C(=O)N(c2ccc(C#N)c(C(F)(F)F)c2)C(=S)N1CCCCCCCCN1CC[C@H](C(N)=O)C1 [Example 51, (S)-1-[8-[3-[4-Cyano-3-(trifluoromethyl)phenyl]-5,5-dimethyl-4-oxo-2-thioxoimidazolidin-1-yl]octyl]pyrrolidine-4-carboxamide]	97%	20 nM	–
CC(C)(O)[C@H]1CCCN1CCCCCCCCN1C(=S)N(c2ccc(C#N)c(C(F)(F)F)c2)C(=O)C1(C)C [Example 44, 4-[3-[8-[(2R)-2-(1-Hydroxy-1-methylethyl)pyrrolidin-1-yl]octyl]-4,4-dimethyl-5-oxo-2-thioxoimidazolidin-1-yl]-2-(trifluoromethyl)benzonitrile]	115%	11 nM	–
COC[C@@H]1CCCN1CCCCCCCCN1C(=S)N(c2ccc(C#N)c(C(F)(F)F)c2)C(=O)C1(C)C [Example 19, 4-[3-[8-[(2S)-2-(Methoxymethyl)pyrrolidin-1-yl]octyl]-4,4-dimethyl-5-oxo-2-thioxoimidazolidin-1-yl]-2-(trifluoromethyl)benzonitrile]	97%	25 nM	–
COC[C@H]1CCCN1CCCCCCCCCN1C(=S)N(c2ccc(C#N)c(C(F)(F)F)c2)C(=O)C1(C)C [Example 20, 4-[3-[9-[(2R)-2-(Methoxymethyl)pyrrolidin-1-yl]nonyl]-4,4-dimethyl-5-oxo-2-thioxoimidazolidin-1-yl]-2-(trifluoromethyl)benzonitrile]	101%	29 nM	–
CC1(C)C(=O)N(c2ccc(C#N)c(C(F)(F)F)c2)C(=S)N1CCCCCCN1CCC[C@@H]1CO [Example 6, 4-[3-[6-[(2R)-2-(Hydroxymethyl)pyrrolidin-1-yl]hexyl]-4,4-dimethyl-5-oxo-2-thioxoimidazolidin-1-yl]-2-(trifluoromethyl)benzonitrile]	102%	55 nM	–
CC1(C)C(=O)N(c2ccc(C#N)c(C(F)(F)F)c2)C(=S)N1CCCCCCCCN1C2CCC1CC(O)C2 (stereo not drawn) [Example 24, 4-[3-[8-(3-Hydroxy-8-azabicyclo[3.2.1]oct-8-yl)octyl]-4,4-dimethyl-5-oxo-2-thioxoimidazolidin-1-yl]-2-(trifluoromethyl)benzonitrile]	102%	13 nM	–
CC1(C)C(=O)N(c2ccc(C#N)c(C(F)(F)F)c2)C(=S)N1CCCCCCCN1CCCC1 [Example 4, 4-[4,4-Dimethyl-5-oxo-3-[7-(pyrrolidin-1-yl)heptyl]-2-thioxoimidazolidin-1-yl]-2-(trifluoromethyl)benzonitrile]	98%	45 nM	–
CC1(C)C(=O)N(c2ccc(C#N)c(C(F)(F)F)c2)C(=S)N1CCCCCCN1CC[C@H](C(N)=O)C1 [Example 49, (S)-1-[6-[3-[4-Cyano-3-(trifluoromethyl)phenyl]-5,5-dimethyl-4-oxo-2-thioxoimidazolidin-1-yl]hexyl]pyrrolidine-4-carboxamide]	110%	32 nM	–
CC(C)(O)[C@@H]1CCCN1CCCCCCCN1C(=S)N(c2ccc(C#N)c(C(F)(F)F)c2)C(=O)C1(C)C [Example 39, 4-[3-[7-[(2S)-2-(1-Hydroxy-1-methylethyl)pyrrolidin-1-yl]heptyl]-4,4-dimethyl-5-oxo-2-thioxoimidazolidin-1-yl]-2-(trifluoromethyl)benzonitrile]	108%	41 nM	–
CC1(C)C(=O)N(c2ccc(C#N)c(C(F)(F)F)c2)C(=S)N1CCCCCCCN1CC[C@@H](C(N)=O)C1 [Example 53, (R)-1-[7-[3-[4-Cyano-3-(trifluoromethyl)phenyl]-5,5-dimethyl-4-oxo-2-thioxoimidazolidin-1-yl]heptyl]pyrrolidine-4-carboxamide]	97%	49 nM	–
